Measured values from PubChem BioAssay (NCI).
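Cells were grown in 96-well plates and exposed to each compound for 48 hours at five concentrations; endpoints were interpolated linearly between bracketing concentrations, or set to the highest concentration if not reached. Definition used: TGI = concentration required for complete inhibition of growth.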

Experiments:
Test in all cases: NCI tumour cell line growth inhibition, 48 h
[1] = system: MALME-3M melanoma
[2] = system: ACHN renal
[3] = system: UACC-257 melanoma
[4] = system: KM12 colon
[5] = system: NCI-H23 lung
[6] = system: SF-295 CNS
[7] = system: OVCAR-8 ovarian
[8] = system: SN12C renal
[9] = system: UACC-62 melanoma
[10] = system: OVCAR-5 ovarian
[11] = system: MOLT-4 leukemia
[12] = system: HS 578T breast
[13] = system: MDA-N
[14] = system: CAKI-1 renal
[15] = system: MDA-MB-231 breast
[16] = system: SR leukemia
[17] = system: A549 NSCLC
[18] = system: M14 melanoma
[19] = system: SNB-19 CNS
[20] = system: SK-MEL-5 melanoma
[21] = system: HCT-15 colon
[22] = system: SW-620 colon
[23] = system: COLO 205 colon
[24] = system: SNB-75 CNS
[25] = system: 786-0 renal
[26] = system: SK-OV-3 ovarian
[27] = system: HCT-116 colon
[28] = system: BT-549 breast
[29] = system: OVCAR-4 ovarian
[30] = system: SK-MEL-28 melanoma
[31] = system: UO-31 renal
[32] = system: IGROV1 ovarian
[33] = system: LOX IMVI melanoma
[34] = system: PC-3 prostate
[35] = system: NCI-H460 lung
[36] = system: HL-60(TB) leukemia
[37] = system: EKVX NSCLC
[38] = system: T-47D breast
[39] = system: HOP-62 NSCLC
[40] = system: NCI-H522 lung
[41] = system: CCRF-CEM leukemia
[42] = system: NCI-H226 lung
[43] = system: OVCAR-3 ovarian
[44] = system: K-562 leukemia
[45] = system: MCF7 breast
[46] = system: HT29 colon
[47] = system: RXF 393 renal
[48] = system: TK-10 renal
[49] = system: RPMI-8226 leukemia
[50] = system: DU-145 prostate
[51] = system: U251 CNS
[52] = system: SK-MEL-2 melanoma
[53] = system: MDA-MB-435
[54] = system: SF-268 CNS
[55] = system: HOP-92 NSCLC
[56] = system: NCI/ADR-RES ovarian
[57] = system: SF-539 CNS
[58] = system: HCC-2998 colon

## CN(CCCCCl)P(=O)(OCC1=CC(=O)c2ccccc2C1=O)OC[C@H]1O[C@@H](n2cc(F)c(=O)[nH]c2=O)C[C@@H]1O (some centres not stated)
[1]
  TGI: 2.79 µM
[2]
  TGI: 14.7 µM
[3]
  TGI: 24 µM
[4]
  TGI: 22.3 µM
[5]
  TGI: 5.07 µM
[6]
  TGI: 0.452 µM
[7]
  TGI: 15.7 µM
[8]
  TGI: 1.21 µM
[9]
  TGI: 1.93 µM
[10]
  TGI: 25.2 µM
[11]
  TGI: 32.2 µM
[12]
  TGI: 0.603 µM
[13]
  TGI: 2.19 µM
[14]
  TGI: 0.627 µM
[15]
  TGI: 19.3 µM
[16]
  TGI: 28.9 µM
[17]
  TGI: 0.553 µM
[18]
  TGI: 3.52 µM
[19]
  TGI: > 40.6 µM
[20]
  TGI: 0.647 µM
[21]
  TGI: 20.3 µM
[22]
  TGI: 23.1 µM
[23]
  TGI: > 26 µM
[24]
  TGI: 0.418 µM
[25]
  TGI: 18.3 µM
[26]
  TGI: > 42.8 µM
[27]
  TGI: 13.5 µM
[28]
  TGI: 22.3 µM
[29]
  TGI: 14.9 µM
[30]
  TGI: 23.8 µM
[31]
  TGI: 15.9 µM
[32]
  TGI: 14.3 µM
[33]
  TGI: 10.7 µM
[34]
  TGI: 18.8 µM
[35]
  TGI: 7.9 µM
[36]
  TGI: 16.5 µM
[37]
  TGI: 21.2 µM
[38]
  TGI: 3.65 µM
[39]
  TGI: 22.6 µM
[40]
  TGI: 10.9 µM
[41]
  TGI: 29.4 µM
[42]
  TGI: 21 µM
[43]
  TGI: 12.8 µM
[44]
  TGI: 40.9 µM
[45]
  TGI: 8.68 µM
[46]
  TGI: 34.4 µM
[47]
  TGI: 2.78 µM
[48]
  TGI: 17.7 µM
[49]
  TGI: 21.8 µM
[50]
  TGI: 5.53 µM
[51]
  TGI: 18.4 µM
[52]
  TGI: 23.4 µM
[53]
  TGI: 2.21 µM
[54]
  TGI: 12.6 µM

## Cc1ccc(S(=O)(=O)NC(=O)NC(C(=O)O)C(C)C)cc1 (configuration not stated)
[1]
  TGI: > 100 µM
[2]
  TGI: > 100 µM
[3]
  TGI: > 100 µM
[55]
  TGI: > 100 µM
[4]
  TGI: > 100 µM
[5]
  TGI: > 100 µM
[56]
  TGI: > 100 µM
[6]
  TGI: > 100 µM
[7]
  TGI: > 100 µM
[57]
  TGI: > 100 µM
[8]
  TGI: > 100 µM
[9]
  TGI: > 100 µM
[10]
  TGI: > 100 µM
[11]
  TGI: > 100 µM
[12]
  TGI: > 100 µM
[13]
  TGI: > 100 µM
[15]
  TGI: > 100 µM
[16]
  TGI: > 100 µM
[17]
  TGI: > 100 µM
[18]
  TGI: > 100 µM
[19]
  TGI: > 100 µM
[20]
  TGI: > 100 µM
[21]
  TGI: > 100 µM
[22]
  TGI: > 100 µM
[23]
  TGI: > 100 µM
[24]
  TGI: > 100 µM
[25]
  TGI: > 100 µM
[26]
  TGI: > 100 µM
[27]
  TGI: > 100 µM
[28]
  TGI: > 100 µM
[29]
  TGI: > 100 µM
[30]
  TGI: > 100 µM
[31]
  TGI: > 100 µM
[32]
  TGI: > 100 µM
[33]
  TGI: > 100 µM
[34]
  TGI: > 100 µM
[35]
  TGI: > 100 µM
[36]
  TGI: > 100 µM
[38]
  TGI: > 100 µM
[39]
  TGI: > 100 µM
[40]
  TGI: > 100 µM
[41]
  TGI: > 100 µM
[44]
  TGI: > 100 µM
[45]
  TGI: > 100 µM
[46]
  TGI: > 100 µM
[47]
  TGI: > 100 µM
[48]
  TGI: > 100 µM
[49]
  TGI: > 100 µM
[50]
  TGI: > 100 µM
[51]
  TGI: > 100 µM
[52]
  TGI: > 100 µM
[54]
  TGI: > 100 µM

## O=CN(CCN1CCCC1)C1CCc2cc(Cl)c(Cl)cc2C1 (configuration not stated)
[1]
  TGI: 27.3 µM
[3]
  TGI: 30.5 µM
[55]
  TGI: > 100 µM
[4]
  TGI: 20.9 µM
[5]
  TGI: 60 µM
[56]
  TGI: 61.2 µM
[6]
  TGI: 19 µM
[7]
  TGI: 48.6 µM
[57]
  TGI: 48.2 µM
[8]
  TGI: > 100 µM
[10]
  TGI: 40.7 µM
[11]
  TGI: 55 µM
[12]
  TGI: 42.3 µM
[13]
  TGI: 23.4 µM
[14]
  TGI: 53.8 µM
[15]
  TGI: 26.1 µM
[16]
  TGI: 60.7 µM
[17]
  TGI: 23.2 µM
[18]
  TGI: 29.3 µM
[19]
  TGI: 75 µM
[20]
  TGI: 42 µM
[21]
  TGI: 31.8 µM
[22]
  TGI: > 100 µM
[23]
  TGI: 37.8 µM
[25]
  TGI: 19.9 µM
[26]
  TGI: 29 µM
[27]
  TGI: 24.9 µM
[28]
  TGI: 27.7 µM
[29]
  TGI: > 100 µM
[31]
  TGI: 27.1 µM
[32]
  TGI: 97.6 µM
[33]
  TGI: 27.3 µM
[34]
  TGI: 28.9 µM
[35]
  TGI: 21.4 µM
[36]
  TGI: 37.2 µM
[37]
  TGI: > 100 µM
[38]
  TGI: 41.3 µM
[39]
  TGI: 34.9 µM
[40]
  TGI: 23 µM
[41]
  TGI: 43.9 µM
[43]
  TGI: 30.6 µM
[44]
  TGI: 51.6 µM
[46]
  TGI: 18.2 µM
[47]
  TGI: 28.8 µM
[58]
  TGI: 31.2 µM
[48]
  TGI: 34.8 µM
[49]
  TGI: 45.3 µM
[50]
  TGI: > 100 µM
[51]
  TGI: 24.6 µM
[53]
  TGI: 28.6 µM
[54]
  TGI: > 100 µM
